The text below walks through data of paper PMC3431920 (Molecular bioSystems, 2012).

In series [1] the test system is MCF-7 cells. Description: MTS cell viability assay, 24h treatment. Format: cell-based. To be noted: result in words. (In general: Tetrazolium assays rely on reduction of a dye to a coloured formazan, in cell work by metabolically active cells.)
Series [2] can be described thus: Water solubility. Format: physicochemical. The settings on record: result in words; method not given.

With `N=C(N)NCCC[C@H](NC(=O)[C@H](CCCNC(=N)N)NC(=O)[C@H](CCCNC(=N)N)NC(=O)[C@H](CCCNC(=N)N)NC(=O)[C@H](CCCNC(=N)N)NC(=O)[C@H](CCCNC(=N)N)NC(=O)[C@H](CCCNC(=N)N)NC(=O)[C@H](CCCNC(=N)N)NC(=O)c1ccc2c(c1)C(=O)OC21c2ccc(O)cc2Oc2cc(O)ccc21)C(N)=O` [Construct 1], the “cytotoxicity (in words)” value in series [1] is recorded as “minor cytotoxicity”.
With `C[C@@H](c1ccccc1)N(CC(N)=O)C(=O)CN(C(=O)CN(CCCCN)C(=O)CN(C(=O)CN(C(=O)CN(CCCCN)C(=O)CN(C(=O)CN(C(=O)CN(CCCCN)C(=O)CN(C(=O)CN(C(=O)CN(CCCCN)C(=O)c1ccc2c(c1)C(=O)OC21c2ccc(O)cc2Oc2cc(O)ccc21)[C@@H](C)c1ccccc1)[C@@H](C)c1ccccc1)[C@@H](C)c1ccccc1)[C@@H](C)c1ccccc1)[C@@H](C)c1ccccc1)[C@@H](C)c1ccccc1)[C@@H](C)c1ccccc1` [Construct 4], the water solubility result in series [2] was “good water solubility”.
